According to ChEMBL document CHEMBL5357001, “Coriaceumins A-D, the First Nitrogen-Containing Crenulide Diterpenoids from the Brown Alga Dictyota coriacea Collected in the East China Sea” (J Nat Prod, 2024):
Active and inactive are the calls of the source. No cut-off for these calls is given here.

Tests used:
HL-60 = test: Cytotoxicity against human HL-60 cells assessed as reduction in cell viability at 20 uM incubated for 3 days by CCK-8 assay; format: functional, cell-based; conditions: time 3.0 day
[1] = molecular target: T1, Tyrosine-protein phosphatase non-receptor type 1 (Homo sapiens, UniProt P18031); test: Inhibition of recombinant PTP1B (unknown origin) using pNPP as substrate relative to control
T1 sequence (P18031 whole entry): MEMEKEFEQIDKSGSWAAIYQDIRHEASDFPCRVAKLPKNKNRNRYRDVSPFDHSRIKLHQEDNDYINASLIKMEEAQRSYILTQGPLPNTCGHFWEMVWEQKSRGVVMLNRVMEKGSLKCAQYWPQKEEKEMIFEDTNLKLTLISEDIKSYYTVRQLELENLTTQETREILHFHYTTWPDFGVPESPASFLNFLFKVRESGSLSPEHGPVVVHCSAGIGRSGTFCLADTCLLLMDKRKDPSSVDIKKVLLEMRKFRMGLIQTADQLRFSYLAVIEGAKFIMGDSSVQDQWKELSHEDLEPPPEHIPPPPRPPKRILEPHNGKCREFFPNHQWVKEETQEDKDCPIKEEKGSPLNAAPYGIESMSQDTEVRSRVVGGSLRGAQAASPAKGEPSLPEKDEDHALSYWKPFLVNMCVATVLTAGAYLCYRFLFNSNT

[2] = molecular target: T2, Tyrosine-protein phosphatase non-receptor type 1 (Homo sapiens) (UniProt P18031); test: Inhibition of recombinant PTP1B (unknown origin) using pNPP as substrate at 20 uM relative to control
T2 sequence (whole entry): T1 sequence (P18031 whole entry)

A549 = test: Cytotoxicity against human A549 cells assessed as reduction in cell viability at 20 uM incubated for 3 days by CCK-8 assay; format: functional, cell-based; conditions: time 3.0 day

SMILES	Activity (HL-60)	IC50 [1] [µM]	inhibition [2] [%]	Activity (A549)
CC(=O)O[C@@H]1C[C@@H](C)[C@@H]2C[C@@H]2C2=C(C(=O)NC2)[C@@H]1[C@H](C)CCC=C(C)C	inactive	19	52	inactive
CC(=O)O[C@@H]1C[C@@H](C)[C@@H]2C[C@@H]2C2=C(CNC2=O)[C@@H]1[C@H](C)CCC=C(C)C	inactive	13	73	inactive
CC(C)=CCC[C@@H](C)[C@H]1C2=C(C(=O)NC2)[C@H]2C[C@H]2[C@H](C)C[C@H]1O	inactive		40	inactive
CCO[C@@H]1C/C=C(\C)CC[C@@H]([C@H](C)CCC=C(C)C)C2=C1C(=O)N[C@@H]2O	inactive		38	inactive
CCO[C@@H]1C/C=C(\C)CC[C@@H]([C@H](C)CCC=C(C)C)C2=C1C(=O)N[C@H]2O	inactive	9.5	81	inactive
CC(C)=CCC[C@@H](C)[C@H]1C2=C(C(=O)OC2)[C@H]2C[C@H]2[C@H](C)C[C@H]1O	inactive	7.3	86	inactive
C=C(C)C(=O)CC[C@@H](C)[C@H]1C2=C(CNC2=O)[C@H]2C[C@H]2[C@H](C)C[C@H]1OC(C)=O	inactive		47	inactive
